Measurements taken from ChEMBL document CHEMBL1127152, “Design and synthesis of achiral 5-lipoxygenase inhibitors employing the cyclobutyl group” (Bioorg Med Chem Lett, 1993).

Target: T1, Polyunsaturated fatty acid 5-lipoxygenase (Homo sapiens, UniProt P09917)
T1 sequence (P09917 whole entry): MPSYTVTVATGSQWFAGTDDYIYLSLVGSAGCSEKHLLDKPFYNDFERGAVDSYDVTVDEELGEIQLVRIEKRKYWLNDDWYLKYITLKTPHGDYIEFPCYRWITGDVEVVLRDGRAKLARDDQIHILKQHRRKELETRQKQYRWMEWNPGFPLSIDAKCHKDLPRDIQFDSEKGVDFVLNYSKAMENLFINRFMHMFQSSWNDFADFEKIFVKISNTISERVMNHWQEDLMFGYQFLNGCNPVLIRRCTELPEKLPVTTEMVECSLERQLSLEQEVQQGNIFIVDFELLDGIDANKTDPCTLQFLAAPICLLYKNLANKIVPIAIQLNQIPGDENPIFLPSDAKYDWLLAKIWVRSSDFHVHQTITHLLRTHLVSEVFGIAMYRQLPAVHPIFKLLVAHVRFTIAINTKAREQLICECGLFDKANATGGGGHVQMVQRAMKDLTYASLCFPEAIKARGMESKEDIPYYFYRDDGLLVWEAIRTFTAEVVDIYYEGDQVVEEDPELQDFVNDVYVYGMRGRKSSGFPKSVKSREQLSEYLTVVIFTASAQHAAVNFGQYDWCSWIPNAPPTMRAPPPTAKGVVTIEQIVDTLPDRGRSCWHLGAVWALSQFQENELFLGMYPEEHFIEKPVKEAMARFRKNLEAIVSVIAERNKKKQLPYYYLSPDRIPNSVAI
Experiment: The compound was tested in vitro for inhibition against 5-lipoxygenase in intact human neutrophils

`NC(=O)N(O)[C@H]1C[C@@H](c2cccc(Oc3ccc(F)cc3)c2)C1` showed an IC50 of 170 nM.

`NC(=O)N(O)[C@H]1C[C@H](c2cc3ccccc3s2)C1` was tested, and the IC50 was 380 nM.

`CC(/C=C/c1cccc(Oc2ccc(F)cc2)c1)N(O)C(N)=O` (stereo not drawn) gave an IC50 of 80 nM.
